For one assay, the target named is T1, muscarinic M3 receptor (Homo sapiens, UniProt P20309).
T1 construct: expressed in transfected cells; host or cells: CHO cells
In words: Binding assay M3 (h), [3H]4-DAMP, CHO cells. The following applies: read-out: M3 [%]. In a few lines: (§1)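 Radioligand displacement with compounds at 1×10^−6 M, detected by scintillation counting. Specific binding taken as total minus non-specific binding measured with excess unlabelled ligand.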

In assay [1] the target is serotoninergic 5-HT7 receptor (Homo sapiens, UniProt P34969). In words: Binding assay 5-HT7 (h), [3H]LSD, CHO cells. More on the design: expressed in transfected cells; host or cells: CHO cells. Particulars: read-out: 5-HT7. The method, boiled down: as §1
Chain of serotoninergic 5-HT7 receptor (P34969 whole entry): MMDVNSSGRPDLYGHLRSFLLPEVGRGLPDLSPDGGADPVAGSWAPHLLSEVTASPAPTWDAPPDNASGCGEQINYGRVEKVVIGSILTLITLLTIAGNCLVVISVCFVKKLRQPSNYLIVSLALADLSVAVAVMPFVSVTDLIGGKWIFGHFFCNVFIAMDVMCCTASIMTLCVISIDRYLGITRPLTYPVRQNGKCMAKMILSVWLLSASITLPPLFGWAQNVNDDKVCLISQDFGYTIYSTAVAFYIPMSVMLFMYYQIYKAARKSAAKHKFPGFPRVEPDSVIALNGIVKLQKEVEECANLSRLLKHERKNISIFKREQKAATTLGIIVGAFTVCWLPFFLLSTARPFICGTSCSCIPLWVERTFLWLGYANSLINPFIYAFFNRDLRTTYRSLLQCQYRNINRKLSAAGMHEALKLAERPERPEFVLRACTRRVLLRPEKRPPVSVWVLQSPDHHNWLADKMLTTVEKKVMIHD
The target in assay [2] is T2, serotoninergic 5-HT6 receptor (Homo sapiens, UniProt P50406). The assay can be described thus: Cellular functional assay, serotoninergic 5-HT6 receptor (agonism/antagonism). Type of assay: cell-based. The following applies: for activation at 1 µM: agonist effect, percent of control specific agonist response, compounds tested at 1×10^−6M, read-out: 5-HT6-ag [%]; for inhibition at 1 µM: read-out: 5-HT6-antag. [%]. On the procedure: (§2) The compounds were tested at the concentration of 1×10^−6M.
T2 sequence (P50406 whole entry): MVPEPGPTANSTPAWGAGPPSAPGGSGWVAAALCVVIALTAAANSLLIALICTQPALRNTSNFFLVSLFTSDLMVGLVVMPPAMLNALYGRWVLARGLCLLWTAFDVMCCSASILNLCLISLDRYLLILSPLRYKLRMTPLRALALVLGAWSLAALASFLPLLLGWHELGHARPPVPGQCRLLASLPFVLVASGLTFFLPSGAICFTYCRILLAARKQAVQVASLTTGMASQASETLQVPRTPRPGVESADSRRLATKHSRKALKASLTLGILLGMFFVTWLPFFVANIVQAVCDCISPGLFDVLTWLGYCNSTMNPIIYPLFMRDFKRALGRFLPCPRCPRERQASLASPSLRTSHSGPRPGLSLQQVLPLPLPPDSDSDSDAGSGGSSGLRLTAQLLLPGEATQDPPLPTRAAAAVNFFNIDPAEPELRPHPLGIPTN
(§3) In the Tables ag refers to agonism, and antag to antagonism).

Assay [3] concerns the target T2, serotoninergic 5-HT6 receptor. In words: Binding assay 5-HT6 (h), [3H]LSD, CHO cells. More on the design: expressed in transfected cells; host or cells: CHO cells. The following applies: read-out: 5-HT6. In a few lines:
as §1

For another assay, the target named is T3, adrenergic α2C receptor (Homo sapiens, UniProt P18825).
T3 sequence (P18825 1-462): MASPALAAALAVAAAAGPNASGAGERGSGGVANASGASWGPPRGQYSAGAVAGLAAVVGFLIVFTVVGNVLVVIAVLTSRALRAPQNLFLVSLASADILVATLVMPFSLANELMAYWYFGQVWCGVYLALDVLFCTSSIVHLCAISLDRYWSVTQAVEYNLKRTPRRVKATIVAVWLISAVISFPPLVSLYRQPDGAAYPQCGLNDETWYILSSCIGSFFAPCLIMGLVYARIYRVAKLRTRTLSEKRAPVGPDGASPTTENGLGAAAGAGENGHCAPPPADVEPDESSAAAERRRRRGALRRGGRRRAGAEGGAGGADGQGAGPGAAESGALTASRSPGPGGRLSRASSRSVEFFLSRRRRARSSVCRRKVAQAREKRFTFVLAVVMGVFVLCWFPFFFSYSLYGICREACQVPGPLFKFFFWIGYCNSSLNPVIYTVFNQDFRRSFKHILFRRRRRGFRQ
The assay can be described thus: Cellular functional assay, adrenergic α2C receptor (agonism/antagonism). Type of assay: cell-based. The following applies: for activation at 1 µM: agonist effect, percent of control specific agonist response, compounds tested at 1×10^−6M, read-out: α2C −ag [%]; for inhibition at 1 µM: read-out: α2C −antag. [%]. On the procedure:
as §2, §3

For a further assay, the target named is T4, adrenergic α1A receptor (Homo sapiens, UniProt P35348).
T4 sequence (P35348 1-466): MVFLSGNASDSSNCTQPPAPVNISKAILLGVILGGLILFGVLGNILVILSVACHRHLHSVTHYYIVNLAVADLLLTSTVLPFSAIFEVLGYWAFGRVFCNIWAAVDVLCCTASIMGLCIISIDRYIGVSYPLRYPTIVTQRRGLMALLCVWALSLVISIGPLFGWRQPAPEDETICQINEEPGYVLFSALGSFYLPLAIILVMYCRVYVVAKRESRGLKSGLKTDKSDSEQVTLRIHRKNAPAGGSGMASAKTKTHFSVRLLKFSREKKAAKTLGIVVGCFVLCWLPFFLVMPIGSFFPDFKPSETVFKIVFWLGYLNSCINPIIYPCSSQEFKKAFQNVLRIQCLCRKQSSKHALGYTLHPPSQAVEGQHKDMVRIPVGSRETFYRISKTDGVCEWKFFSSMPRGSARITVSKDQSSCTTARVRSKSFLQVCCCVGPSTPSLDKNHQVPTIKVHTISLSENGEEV
The assay can be described thus: Cellular functional assay, adrenergic α1A receptor (agonism/antagonism). Type of assay: cell-based. The following applies: for activation at 1 µM: agonist effect, percent of control specific agonist response, compounds tested at 1×10^−6M, read-out: α1A -ag [%]; for inhibition at 1 µM: read-out: α1A -antag. [%]. On the procedure:
[…]. The compounds were tested at the concentration of 1×10^−6M.
Conditions and methodology (by reference to the literature) of cellular functional assays are given in Table 13 and the tests results for representative compounds are given in Table 14 (dopaminergic receptor D2), in Table 15 (dopaminergic receptor D3), in Table 16 (serotoninergic receptor 5-HT1A), in Table 17 (serotoninergic receptor 5-HT2A), in Table 18 (serotoninergic receptor 5-HT6), in Table 19 (serotoninergic receptor 5-HT7), in Table 20 (adrenergic α1 receptor), in Table 21 (adrenergic α2C receptor), in Table 22 (histaminergic H1 receptor) and in Table 23 (serotoninergic 5-HT2C receptor). In the Tables ag refers to agonism, and antag to antagonism).

The target in another assay is dopaminergic D3 receptor (Homo sapiens, UniProt P35462). In words: Cellular functional assay, dopaminergic D3 receptor (agonism/antagonism). The following applies: for inhibition at 1 µM: CHO, read-out: D3-antag. [%]; for activation at 1 µM: agonist effect, percent of control specific agonist response (300 nM dopamine for control), 1×10^−6 M, D3 (h), CHO cells, read-out: D3-ag [%]. The format is cell-based. On the procedure:
as §2, §3

The target of assay [4] is T5, serotonine transporter (SERT) receptor (Homo sapiens, UniProt P31645).
T5 construct: expressed in transfected cells; host or cells: CHO cells
T5 sequence (P31645 whole entry): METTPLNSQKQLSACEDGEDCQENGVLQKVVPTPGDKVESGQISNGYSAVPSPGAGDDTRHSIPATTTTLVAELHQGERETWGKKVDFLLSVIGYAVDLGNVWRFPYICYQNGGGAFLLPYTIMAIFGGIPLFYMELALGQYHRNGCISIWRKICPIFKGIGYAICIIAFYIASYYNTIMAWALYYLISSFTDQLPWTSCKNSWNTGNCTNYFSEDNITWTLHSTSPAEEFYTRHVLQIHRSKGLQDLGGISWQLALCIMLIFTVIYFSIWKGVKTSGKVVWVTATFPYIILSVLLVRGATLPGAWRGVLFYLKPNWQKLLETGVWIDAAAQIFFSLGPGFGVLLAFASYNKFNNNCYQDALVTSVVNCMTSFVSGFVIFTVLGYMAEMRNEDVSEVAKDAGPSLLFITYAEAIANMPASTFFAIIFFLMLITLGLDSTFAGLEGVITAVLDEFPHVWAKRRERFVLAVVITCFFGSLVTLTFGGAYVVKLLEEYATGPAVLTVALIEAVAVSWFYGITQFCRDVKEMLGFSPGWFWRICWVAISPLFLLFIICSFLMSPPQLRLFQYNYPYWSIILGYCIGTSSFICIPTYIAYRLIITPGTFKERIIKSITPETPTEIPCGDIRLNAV
In words: Binding assay SERT (h), [3H]imipramine, CHO cells. Particulars: read-out: SERT [%]. The method, boiled down:
as §1

Another assay addresses dopaminergic D2 receptor (Homo sapiens, UniProt P14416). The assay can be described thus: Binding assay D2S (h), [3H]methyl-spiperone, HEK-293 cells. Particulars: read-out: D2 [%]. The arrangement: expressed in transfected cells; host or cells: HEK-293 cells. In a few lines: as §1
In assay [5] the target is histaminergic H1 receptor (Homo sapiens, UniProt P35367). In words: Binding assay H1 (h), [3H]pyrilamine, HEK-293 cells. The arrangement: expressed in transfected cells; host or cells: HEK-293 cells. Particulars: read-out: H1 [%]. In a few lines:
as §1

Chain of dopaminergic D3 receptor (P35462 whole entry): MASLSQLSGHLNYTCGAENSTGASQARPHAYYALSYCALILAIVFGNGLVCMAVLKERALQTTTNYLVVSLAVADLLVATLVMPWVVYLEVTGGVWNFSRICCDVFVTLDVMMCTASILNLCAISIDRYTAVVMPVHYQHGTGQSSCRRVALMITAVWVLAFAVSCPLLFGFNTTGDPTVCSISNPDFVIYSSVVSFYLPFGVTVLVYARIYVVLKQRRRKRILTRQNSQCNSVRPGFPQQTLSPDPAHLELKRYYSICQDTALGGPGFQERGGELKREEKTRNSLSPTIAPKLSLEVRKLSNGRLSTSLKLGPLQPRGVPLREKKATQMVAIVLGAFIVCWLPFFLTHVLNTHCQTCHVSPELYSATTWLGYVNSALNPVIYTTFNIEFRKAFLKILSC
T1 sequence (P20309 whole entry): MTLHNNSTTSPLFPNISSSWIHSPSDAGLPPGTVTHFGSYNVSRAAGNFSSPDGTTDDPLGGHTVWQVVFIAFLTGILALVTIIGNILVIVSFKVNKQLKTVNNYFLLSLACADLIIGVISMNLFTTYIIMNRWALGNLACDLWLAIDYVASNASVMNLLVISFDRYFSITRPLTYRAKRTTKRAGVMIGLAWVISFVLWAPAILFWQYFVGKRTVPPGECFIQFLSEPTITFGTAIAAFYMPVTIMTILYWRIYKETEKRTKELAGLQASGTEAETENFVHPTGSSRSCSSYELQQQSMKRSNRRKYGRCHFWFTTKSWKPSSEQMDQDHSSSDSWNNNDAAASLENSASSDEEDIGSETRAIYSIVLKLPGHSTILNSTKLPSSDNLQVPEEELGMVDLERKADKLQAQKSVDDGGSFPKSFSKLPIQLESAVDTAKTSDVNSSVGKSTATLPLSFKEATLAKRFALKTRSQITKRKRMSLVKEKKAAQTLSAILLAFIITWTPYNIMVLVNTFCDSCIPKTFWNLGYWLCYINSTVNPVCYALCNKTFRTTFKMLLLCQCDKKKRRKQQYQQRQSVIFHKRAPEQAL
Chain of histaminergic H1 receptor (P35367 whole entry): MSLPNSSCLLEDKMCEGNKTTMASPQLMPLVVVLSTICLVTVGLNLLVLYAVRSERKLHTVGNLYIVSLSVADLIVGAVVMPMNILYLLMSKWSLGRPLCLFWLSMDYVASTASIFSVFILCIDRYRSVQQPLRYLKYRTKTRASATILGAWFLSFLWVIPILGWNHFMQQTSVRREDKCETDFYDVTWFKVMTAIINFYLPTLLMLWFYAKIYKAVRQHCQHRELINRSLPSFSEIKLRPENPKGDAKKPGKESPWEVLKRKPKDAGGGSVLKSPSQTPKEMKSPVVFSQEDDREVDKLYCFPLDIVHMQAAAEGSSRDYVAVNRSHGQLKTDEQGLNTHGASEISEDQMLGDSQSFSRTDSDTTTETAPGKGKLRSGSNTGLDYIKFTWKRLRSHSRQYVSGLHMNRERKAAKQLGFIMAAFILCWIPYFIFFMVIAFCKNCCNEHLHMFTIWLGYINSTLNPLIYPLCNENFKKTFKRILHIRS
Chain of dopaminergic D2 receptor (P14416 1-414 isoform P14416-2): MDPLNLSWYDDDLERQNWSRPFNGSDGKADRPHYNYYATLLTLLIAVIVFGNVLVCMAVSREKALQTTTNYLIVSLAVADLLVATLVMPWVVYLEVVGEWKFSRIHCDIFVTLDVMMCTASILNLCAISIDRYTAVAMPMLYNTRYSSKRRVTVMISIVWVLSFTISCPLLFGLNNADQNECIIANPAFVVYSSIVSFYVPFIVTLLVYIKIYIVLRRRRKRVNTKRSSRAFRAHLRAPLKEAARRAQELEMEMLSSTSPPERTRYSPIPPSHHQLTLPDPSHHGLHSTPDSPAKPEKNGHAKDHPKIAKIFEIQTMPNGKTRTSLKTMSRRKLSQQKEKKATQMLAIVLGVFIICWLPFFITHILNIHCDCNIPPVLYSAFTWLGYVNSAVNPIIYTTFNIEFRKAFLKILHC

Turning to `O=S(=O)(NCCCCN1CCN(c2noc3ccccc23)CC1)c1cc2ccc(Cl)cc2s1` [Compound 288, N-[4-[4-(1,2-Benzoxazol-3-yl)piperazin-1-yl]butyl]-6-chlorobenzothiophene-2-sulphonamide], the inhibition at 1 µM was found to be 3% at muscarinic M3 receptor; 100% in assay [1]; 74% in assay [2]; 98% in assay [3]; 13% on adrenergic α2C receptor; 97% on adrenergic α1A receptor. For the same compound, the inhibition at 1 µM on dopaminergic D3 receptor was 72%; in assay [4], -14%; at dopaminergic D2 receptor, 103%; in assay [5], 94%. In addition, the activation at 1 µM worked out at 0% in assay [2], 1% on adrenergic α2C receptor, 0% on adrenergic α1A receptor and 0% at dopaminergic D3 receptor.

For `O=S(=O)(NCCCN1CCC(c2noc3cc(F)ccc23)CC1)c1ccc2cc(Cl)ccc2c1` [Compound 98, 6-Chloro-N-[3-[4-(6-fluoro-1,2-benzoxazol-3-yl)piperidin-1-yl]propyl]naphthalene-2-sulphonamide], the inhibition at 1 µM at muscarinic M3 receptor worked out at 16%; in [1] it was 98%; in [2] it was 79%; in [3] it was 98%; on adrenergic α2C receptor, 16%; on adrenergic α1A receptor, 99%. Besides, the inhibition at 1 µM was 109% at dopaminergic D3 receptor, 54% in assay [4], 101% on dopaminergic D2 receptor and 100% in [5]. Moreover, the activation at 1 µM in [2] is -2%; on adrenergic α2C receptor, -1%; at adrenergic α1A receptor, 0%; on dopaminergic D3 receptor, -10%.

Regarding `O=S(=O)(NCCCN1CCC(c2noc3cc(F)ccc23)CC1)c1ccc(F)c(Cl)c1` [Compound 331, 3-Chloro-4-fluoro-N-[3-[4-(6-fluoro-1,2-benzoxazol-3-yl)piperidin-1-yl]propyl]benzenesulphonamide], the inhibition at 1 µM at muscarinic M3 receptor was 10%; in assay [1] it was 99%; in assay [2], 98%; in assay [3], 97%; at adrenergic α2C receptor, 7%; at adrenergic α1A receptor, 100%. Further, the inhibition at 1 µM was found to be 114% at dopaminergic D3 receptor, 31% in assay [4], 100% on dopaminergic D2 receptor and 97% in assay [5]. Besides, the activation at 1 µM was -1% in assay [2], -14% on adrenergic α2C receptor, 1% on adrenergic α1A receptor and -15% at dopaminergic D3 receptor.

For the compound `O=S(=O)(NCCCN1CCC(c2noc3cc(F)ccc23)CC1)c1ccc2cn[nH]c2c1` [Compound 352, N-[3-[4-(6-Fluoro-1,2-benzoxazol-3-yl)piperidin-1-yl]propyl]-1H-indazole-6-sulphonamide], the inhibition at 1 µM at muscarinic M3 receptor was found to be 12%; in assay [1] it was 100%; in assay [2], 75%; in assay [3], 95%; at adrenergic α2C receptor, 16%; on adrenergic α1A receptor, 100%. The inhibition at 1 µM amounted to 113% at dopaminergic D3 receptor, 56% in assay [4], 100% on dopaminergic D2 receptor and 97% in assay [5]. For the same compound, the activation at 1 µM in [2] is -2%; at adrenergic α2C receptor, -16%; on adrenergic α1A receptor, 1%; on dopaminergic D3 receptor, -18%.

`Cc1c(S(=O)(=O)NCCCCN2CCC(c3noc4cc(F)ccc34)CC2)sc2ccc(F)cc12` [Compound 101, 5-Fluoro-N-[4-[4-(6-fluoro-1,2-benzoxazol-3-yl)piperidin-1-yl]butyl]-3-methylbenzothiophene-2-sulphonamide]: the inhibition at 1 µM came to 14% at muscarinic M3 receptor; 98% in assay [1]; 103% in assay [2]; 98% in [3]; 46% at adrenergic α2C receptor; 100% on adrenergic α1A receptor. Besides, the inhibition at 1 µM on dopaminergic D3 receptor stood at 112%; in assay [4], 47%; at dopaminergic D2 receptor, 99%; in assay [5], 97%. The activation at 1 µM in [2] was -2%; on adrenergic α2C receptor, 1%; on adrenergic α1A receptor, 0%; at dopaminergic D3 receptor, -18%.

On to `O=S(=O)(NCCCCN1CCN(c2noc3ccccc23)CC1)c1cccc2ccccc12` [Compound 13, N-(4-(4-(1,2-Benzoxazol-3-yl)piperazin-1-yl)butyl)naphthalene-1-sulphonamide], for which the inhibition at 1 µM at muscarinic M3 receptor is -1%; in [1], 100%; in assay [2] it was 56%; in assay [3] it was 96%; on adrenergic α2C receptor it was 18%; at adrenergic α1A receptor, 100%. Besides, the inhibition at 1 µM was 7% in assay [4], 99% on dopaminergic D2 receptor and 84% in assay [5]. In addition, the activation at 1 µM in assay [2] is 1%; on adrenergic α2C receptor, -7%; on adrenergic α1A receptor it was 0%.

Regarding `O=S(=O)(NCCCCN1CCN(c2noc3ccccc23)CC1)c1ccc2cc(Cl)ccc2c1` [Compound 79, N-[4-[4-(1,2-Benzoxazol-3-yl)piperazin-1-yl]butyl]-6-chloro-naphthalene-2-sulphonamide], the inhibition at 1 µM is 12% at muscarinic M3 receptor; 97% in assay [1]; 76% in assay [2]; 97% in assay [3]; 22% at adrenergic α2C receptor; 77% on dopaminergic D3 receptor. In addition, the figures for the inhibition at 1 µM (in assay [4]; on dopaminergic D2 receptor; in [5]) were 3%, 99% and 96%, respectively. Moreover, the activation at 1 µM in [2] is 1%; at adrenergic α2C receptor, 7%; at dopaminergic D3 receptor, -9%.

Take `Cc1cccc(S(=O)(=O)NCCCCN2CCN(c3nsc4ccccc34)CC2)c1` [Compound 3, N-(4-(4-(1,2-Benzothiazol-3-yl)piperazin-1-yl)butyl)-3-methylbenzenesulphonamide]: the inhibition at 1 µM on muscarinic M3 receptor worked out at 13%; in [1], 97%; in [2], 22%; in [3], 83%; in assay [4], 57%; at dopaminergic D2 receptor, 96%. Further, the inhibition at 1 µM in [5] amounted to 94%.

For the origin of these results see patent publication US8822517B2, “Arylosulfonamides for the treatment of CNS diseases” (Adamed SP. Z O.O., priority 2010, dated 2014).
